Non-standard residues stand in square brackets, D forms with d. Residues, ends and D or L forms follow the SMILES beside them. NMeF = CN[C@@H](Cc1ccccc1)C(=O)O
What was measured:
[1] = biological target: Kappa-type opioid receptor (Cavia porcellus, UniProt P41144)
Mu-type opioid receptor = Mu-type opioid receptor (Cavia porcellus, UniProt P97266)
[2] = biological target: T1, 5-hydroxytryptamine receptor 1A (Homo sapiens, UniProt P08908)
T1 sequence (P08908 whole entry): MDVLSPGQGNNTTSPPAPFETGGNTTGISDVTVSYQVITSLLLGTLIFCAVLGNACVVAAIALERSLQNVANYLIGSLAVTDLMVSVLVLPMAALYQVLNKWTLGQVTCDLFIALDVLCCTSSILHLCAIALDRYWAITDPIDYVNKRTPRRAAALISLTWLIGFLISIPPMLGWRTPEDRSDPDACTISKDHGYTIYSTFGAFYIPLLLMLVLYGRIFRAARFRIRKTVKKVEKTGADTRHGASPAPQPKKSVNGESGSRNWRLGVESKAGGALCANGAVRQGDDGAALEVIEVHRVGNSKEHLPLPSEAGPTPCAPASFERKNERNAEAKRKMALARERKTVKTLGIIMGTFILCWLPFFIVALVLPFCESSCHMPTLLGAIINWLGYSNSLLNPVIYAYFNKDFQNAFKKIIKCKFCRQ

[3] = biological target: 5-hydroxytryptamine receptor 2A (Rattus norvegicus, UniProt P14842)
[4] = biological target: T2, 5-hydroxytryptamine receptor 3A (Mus musculus, UniProt P23979)
T2 sequence (P23979 whole entry): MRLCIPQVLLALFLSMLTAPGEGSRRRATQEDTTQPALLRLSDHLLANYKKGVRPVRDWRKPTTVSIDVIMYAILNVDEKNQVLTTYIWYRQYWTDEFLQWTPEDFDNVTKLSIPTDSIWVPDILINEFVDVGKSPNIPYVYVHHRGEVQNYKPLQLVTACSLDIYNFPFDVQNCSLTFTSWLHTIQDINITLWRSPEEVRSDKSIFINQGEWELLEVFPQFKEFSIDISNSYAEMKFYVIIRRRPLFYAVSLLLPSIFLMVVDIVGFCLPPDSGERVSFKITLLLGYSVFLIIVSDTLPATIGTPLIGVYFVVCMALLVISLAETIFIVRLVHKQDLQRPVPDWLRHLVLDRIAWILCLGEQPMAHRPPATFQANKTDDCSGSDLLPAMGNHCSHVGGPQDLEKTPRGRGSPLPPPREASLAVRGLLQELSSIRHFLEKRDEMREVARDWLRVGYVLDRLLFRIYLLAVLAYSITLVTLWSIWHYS

D(1A) dopamine receptor = D(1A) dopamine receptor (Homo sapiens, UniProt P21728)
[5] = biological target: T3, 5-hydroxytryptamine receptor 2C (Rattus norvegicus, UniProt P08909)
T3 sequence (P08909 whole entry): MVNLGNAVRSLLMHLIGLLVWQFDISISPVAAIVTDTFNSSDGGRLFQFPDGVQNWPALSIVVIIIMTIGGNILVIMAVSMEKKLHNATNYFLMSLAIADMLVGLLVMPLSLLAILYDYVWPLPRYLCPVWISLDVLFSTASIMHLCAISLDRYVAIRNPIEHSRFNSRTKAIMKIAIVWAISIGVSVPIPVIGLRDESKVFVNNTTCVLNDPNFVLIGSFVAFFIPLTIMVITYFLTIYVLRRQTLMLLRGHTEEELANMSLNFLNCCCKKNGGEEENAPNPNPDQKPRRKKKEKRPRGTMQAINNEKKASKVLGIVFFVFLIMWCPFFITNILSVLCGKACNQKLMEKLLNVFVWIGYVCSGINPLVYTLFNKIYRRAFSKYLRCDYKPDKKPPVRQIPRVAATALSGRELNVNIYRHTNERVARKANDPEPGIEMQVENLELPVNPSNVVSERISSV

D(1A) dopamine receptor, sequence (P21728 whole entry): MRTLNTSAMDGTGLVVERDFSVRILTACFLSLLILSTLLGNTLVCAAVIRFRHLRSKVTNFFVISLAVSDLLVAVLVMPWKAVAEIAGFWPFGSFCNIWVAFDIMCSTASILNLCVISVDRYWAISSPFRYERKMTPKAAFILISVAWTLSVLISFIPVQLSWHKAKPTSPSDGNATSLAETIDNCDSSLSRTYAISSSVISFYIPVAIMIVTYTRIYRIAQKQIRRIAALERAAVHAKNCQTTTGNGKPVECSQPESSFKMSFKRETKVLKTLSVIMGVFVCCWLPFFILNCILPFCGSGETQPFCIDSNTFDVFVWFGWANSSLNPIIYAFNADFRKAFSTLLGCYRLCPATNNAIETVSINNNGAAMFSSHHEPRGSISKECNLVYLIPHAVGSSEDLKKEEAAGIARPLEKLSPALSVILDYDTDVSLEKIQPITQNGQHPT
5-hydroxytryptamine receptor 2A, sequence (P14842 whole entry): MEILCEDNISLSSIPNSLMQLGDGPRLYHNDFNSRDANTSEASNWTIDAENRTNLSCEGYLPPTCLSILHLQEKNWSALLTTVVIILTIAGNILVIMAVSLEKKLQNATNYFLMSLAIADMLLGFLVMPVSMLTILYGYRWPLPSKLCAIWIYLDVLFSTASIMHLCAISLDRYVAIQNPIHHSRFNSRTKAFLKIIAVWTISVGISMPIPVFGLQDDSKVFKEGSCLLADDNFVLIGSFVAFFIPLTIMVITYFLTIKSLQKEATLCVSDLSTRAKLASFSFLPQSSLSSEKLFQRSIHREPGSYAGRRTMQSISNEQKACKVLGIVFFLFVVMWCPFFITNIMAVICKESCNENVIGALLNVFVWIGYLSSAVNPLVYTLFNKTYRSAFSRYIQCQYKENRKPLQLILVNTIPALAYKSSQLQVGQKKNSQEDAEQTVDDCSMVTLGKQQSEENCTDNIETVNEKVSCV
Kappa-type opioid receptor, sequence (P41144 whole entry): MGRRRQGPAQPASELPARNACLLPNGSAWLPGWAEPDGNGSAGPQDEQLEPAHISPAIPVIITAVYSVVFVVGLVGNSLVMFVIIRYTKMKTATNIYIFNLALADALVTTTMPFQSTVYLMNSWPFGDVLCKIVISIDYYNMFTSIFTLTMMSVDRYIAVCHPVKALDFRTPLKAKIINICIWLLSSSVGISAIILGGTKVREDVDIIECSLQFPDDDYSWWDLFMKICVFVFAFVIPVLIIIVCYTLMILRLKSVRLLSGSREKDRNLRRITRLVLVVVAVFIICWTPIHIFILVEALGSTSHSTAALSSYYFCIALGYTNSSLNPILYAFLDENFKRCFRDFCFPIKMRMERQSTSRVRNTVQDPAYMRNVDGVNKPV
Mu-type opioid receptor, sequence (P97266 whole entry): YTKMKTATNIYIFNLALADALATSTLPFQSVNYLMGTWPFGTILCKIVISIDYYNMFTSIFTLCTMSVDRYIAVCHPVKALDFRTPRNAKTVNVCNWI

## COc1ccc2c3c1OC1C(O)C=CC4C(C2)N(C)CCC341 (stereo unspecified) [NSC_223652]
[1]
  Ki: > 10000 nM
Mu-type opioid receptor
  Ki: 152 nM

## Oc1ccc2c3c1O[C@H]1c4[nH]c5c(c4C[C@@]4(O)[C@@H](C2)N(CC2CC2)CC[C@]314)C[C@@]1(O)[C@H]2Cc3ccc(O)c4c3[C@@]1(CCN2CC1CC1)[C@H]5O4 [C18130]
Mu-type opioid receptor
  Ki: 8.3 nM

## Oc1ccc2c3c1OC1C(O)C=CC4C(C2)NCCC341 (stereo unspecified) [NORMORPHINE]
[1]
  Ki: 64.5 nM
Mu-type opioid receptor
  Ki: 3.9 nM

## C=CCN1CCC23c4c5ccc(O)c4O[C@@H]2C(=NNC(=O)c2ccccc2)CCC3(O)C1C5 (stereo partly specified)
[1]
  Ki: 0.4 nM
Mu-type opioid receptor
  Ki: 0.2 nM

## CC[C@H](C)[C@H](NC(=O)[C@H](CCCNC(=N)N)NC(=O)[C@H](CCCNC(=N)N)NC(=O)[C@H](CC(C)C)NC(=O)[C@H](Cc1ccccc1)NC(=O)CNC(=O)CNC(=O)[C@@H](N)Cc1ccc(O)cc1)C(=O)N[C@@H](CCCNC(=N)N)C(=O)N1CCC[C@H]1C(=O)N[C@@H](CCCCN)C(=O)N[C@@H](CC(C)C)C(=O)N[C@@H](CCCCN)C(=O)O [Dynorphin A (1-13)]
Mu-type opioid receptor
  Ki: 3.3 nM

## C=C1CCC2(O)C3Cc4ccc(O)c5c4C2(CCN3CC2CC2)C1O5 (stereo unspecified) [NSC_119501]
[1]
  Ki: 0.3 nM
Mu-type opioid receptor
  Ki: 0.3 nM

## CCc1cc(Cl)c(OC)c(C(=O)NC[C@@H]2CCCN2CC)c1O [3-Chloro-5-ethyl-N-((S)-1-ethyl-pyrrolidin-2-ylmethyl)-6-hydroxy-2-methoxy-benzamide]
[2]
  Ki: 1790 nM
[3]
  Ki: 705 nM
[4]
  Ki: > 10000 nM
D(1A) dopamine receptor
  Ki: > 10000 nM
[5]
  Ki: > 10000 nM

## CC(C)=CCN1CC[C@@]2(C)c3cc(O)ccc3C[C@@H]1[C@@H]2C [Talwin]
[1]
  Ki: 4.4 nM
Mu-type opioid receptor
  Ki: 5.7 nM

## CC(C)C[C@H](NC(=O)[C@H](Cc1ccccc1)NC(=O)CNC(=O)[C@@H](CO)NC(=O)[C@@H](N)Cc1ccc(O)cc1)C(=O)N[C@H](C(=O)O)[C@@H](C)O [DSLET-OH]
[1]
  Ki: > 10000 nM
Mu-type opioid receptor
  Ki: 20.6 nM

## CC[C@@H]1CC2C[C@@H]3c4[nH]c5ccc(OC)cc5c4CCN(C2)C13 [IBOGAINE]
[2]
  Ki: > 10000 nM
[3]
  Ki: > 10000 nM
[4]
  Ki: > 10000 nM
D(1A) dopamine receptor
  Ki: > 10000 nM
[5]
  Ki: > 10000 nM

## CN1CC[C@]23c4c5ccc(O)c4O[C@H]2[C@@H](O)CCC3[C@H]1C5 (stereo partly specified) [DIHYDROMORPHINE]
Mu-type opioid receptor
  Ki: 0.8 nM

## CN[C@@H](C)Cc1ccccc1 [METHAMPHETAMINE (+)]
[2]
  Ki: > 10000 nM
[3]
  Ki: > 10000 nM
[4]
  Ki: > 10000 nM
D(1A) dopamine receptor
  Ki: > 10000 nM
[5]
  Ki: > 10000 nM

## CC(C)C[C@H]1C(=O)N2CCC[C@H]2[C@]2(O)O[C@](NC(=O)[C@@H]3C=C4c5cccc6[nH]c(Br)c(c56)C[C@H]4N(C)C3)(C(C)C)C(=O)N12 [Bromocriptine+ (GTP+)]
[2]
  Ki: 25 nM
[3]
  Ki: 117 nM
[4]
  Ki: > 10000 nM
D(1A) dopamine receptor
  Ki: 2070 nM
[5]
  Ki: 4670 nM

## COC(=O)[C@H]1[C@H]2C[C@@H]3c4[nH]c5cc(OC)ccc5c4CCN3C[C@H]2C[C@@H](OC(=O)c2cc(OC)c(OC)c(OC)c2)[C@@H]1OC [Apoplon]
[2]
  Ki: 1830 nM
[3]
  Ki: 3060 nM
[4]
  Ki: > 10000 nM
D(1A) dopamine receptor
  Ki: 3850 nM
[5]
  Ki: 3100 nM

## CC(C)C[C@H](NC(=O)[C@H](Cc1ccccc1)NC(=O)CNC(=O)CNC(=O)[C@@H](N)Cc1ccc(O)cc1)C(=O)N[C@@H](CCCN=C(N)N)C(=O)N[C@@H](CCCN=C(N)N)C(=O)N[C@@H](CCC(N)=O)C(=O)N[C@@H](Cc1ccccc1)C(=O)N[C@@H](CCCCN)C(=O)N[C@H](C(=O)N[C@H](C(=O)N[C@H](C(=O)O)[C@@H](C)O)C(C)C)C(C)C [Dynorphin B (1-13)]
Mu-type opioid receptor
  Ki: 5.5 nM

## NC(=O)N1c2ccccc2C=Cc2ccccc21 [5H-dibenzo[b,f]azepine-5-carboxamide]
[2]
  Ki: > 10000 nM
[3]
  Ki: > 10000 nM
[4]
  Ki: > 10000 nM
D(1A) dopamine receptor
  Ki: > 10000 nM
[5]
  Ki: > 10000 nM

## CC[C@@]12CCN(CC3CC3)C(C(=O)c3ccc(O)cc31)[C@@H]2C [EKC]
Mu-type opioid receptor
  Ki: 0.4 nM

## H-YGGFMTSEKSQTPLVTLFKNAIVKNAHKKGQ-OH [Beta-Endorphin]
[1]
  Ki: 43.5 nM
Mu-type opioid receptor
  Ki: 2.3 nM

## CCC12CCN(CC3(O)CC3)C(Cc3ccc(O)cc31)C2(C)C (stereo unspecified)
Mu-type opioid receptor
  Ki: 0.1 nM

## CN1CCC2(C)c3cc(O)ccc3CC1C2(C)CCC(=O)CCC1CCCC1 (stereo unspecified) [CAS_115077]
[1]
  Ki: 0.2 nM
Mu-type opioid receptor
  Ki: 0.1 nM

## CN1C2CCC1CC(OC(=O)c1c[nH]c3ccccc13)C2 (stereo unspecified)
[2]
  Ki: > 10000 nM
[3]
  Ki: 5610 nM
[4]
  Ki: 0.5 nM
D(1A) dopamine receptor
  Ki: > 10000 nM
[5]
  Ki: > 10000 nM

## C[C@@H](NC(=O)[C@@H](N)Cc1ccc(O)cc1)C(=O)NCC(=O)N(C)[C@@H](Cc1ccccc1)C(=O)NCCO [[tyrosyl-3,5-3H(N)]-D-Ala2-Mephe4-glyol5-enkephalin]
[1]
  Ki: 1840 nM
Mu-type opioid receptor
  Ki: 1.1 nM

## Oc1ccc2c3c1O[C@H]1c4oc5ccccc5c4C[C@@]4(O)[C@@H](C2)N(CC2CC2)CC[C@]314 [CAS_111555-58-9]
[1]
  Ki: 10.2 nM
Mu-type opioid receptor
  Ki: 6.5 nM

## COC(=O)[C@@H](c1ccccc1)[C@@H]1CCCCN1
[2]
  Ki: > 10000 nM
[3]
  Ki: > 10000 nM
[4]
  Ki: > 10000 nM
D(1A) dopamine receptor
  Ki: > 10000 nM
[5]
  Ki: > 10000 nM

## CCCN1CCCC(c2cccc(O)c2)C1 (stereo unspecified) [CAS_85976-54-1]
[2]
  Ki: 4170 nM
[3]
  Ki: 5990 nM
[4]
  Ki: > 10000 nM
D(1A) dopamine receptor
  Ki: > 10000 nM
[5]
  Ki: > 10000 nM

## C[C@@H]1[C@@H]2Cc3ccc(O)cc3[C@@]1(C)CCN2CC1CC1 [(SSS)-12-Cyclopropylmethyl-13-methyl-12-aza-tricyclo[9.1.1.0*3,8*]trideca-3(8),4,6-trien-6-ol(cyclazocine)]
[1]
  Ki: 0.1 nM

## C[C@@H](O)[C@H](NC(=O)[C@H]1NC(=O)[C@H]([C@@H](C)O)NC(=O)[C@H](CCCN=C(N)N)NC(=O)[C@@H](Cc2c[nH]c3ccccc23)NC(=O)[C@H](Cc2ccc(O)cc2)NC(=O)[C@@H](NC(=O)[C@H](N)Cc2ccccc2)CSSC1(C)C)C(N)=O [CTAP-NH2]
[1]
  Ki: 1050 nM
Mu-type opioid receptor
  Ki: 0.5 nM

## CN1C2CCC1CC(OC(=O)c1cc(Cl)cc(Cl)c1)C2 (stereo unspecified) [MDL 72222]
[2]
  Ki: > 10000 nM
[3]
  Ki: 2850 nM
[4]
  Ki: 14 nM
D(1A) dopamine receptor
  Ki: > 10000 nM
[5]
  Ki: > 10000 nM

## C=CCN1CC[C@]23c4c5ccc(O)c4O[C@H]2[C@@H](O)C=CC3[C@H]1C5 (stereo partly specified) [NALORPHINE - HCI]
[1]
  Ki: 1.7 nM
Mu-type opioid receptor
  Ki: 1.9 nM

## CN1CCN(c2nc3cc(C(F)(F)F)ccc3n3cccc23)CC1 [CAS_109028-10-6]
[2]
  Ki: 44 nM
[3]
  Ki: 3130 nM
[4]
  Ki: > 10000 nM
D(1A) dopamine receptor
  Ki: 1530 nM
[5]
  Ki: 6600 nM

## CN1CC[C@]23CCCC[C@H]2[C@H]1Cc1ccc(O)cc13 [CAS_5985-38-6]
[1]
  Ki: 3.4 nM
Mu-type opioid receptor
  Ki: 0.3 nM

## Oc1ccc2c3c1OC1c4[nH]c5ccccc5c4CC4(O)[C@H](C2)N(CC2CC2)CCC314 (stereo partly specified) [NALTRINDOLE]
[1]
  Ki: 7.8 nM
Mu-type opioid receptor
  Ki: 0.2 nM

## CC(C)[C@H](NC(=O)[C@H](CCC(=O)O)NC(=O)[C@H](Cc1ccccc1)NC(=O)[C@@H](C)NC(=O)[C@@H](N)Cc1ccc(O)cc1)C(=O)N[C@H](C(=O)NCC(N)=O)C(C)C [Tyr-D-Ala-Phe-Glu-Val-Val-GlyNH2]
[1]
  Ki: > 10000 nM

## CC(C)C[C@@H](NC(=O)[C@H](Cc1ccccc1)NC(=O)CNC(=O)[C@@H](C)NC(=O)[C@@H](N)Cc1ccc(O)cc1)C(=O)O [[D-Ala2-D-Leu5]enkephalin]
[1]
  Ki: > 10000 nM
Mu-type opioid receptor
  Ki: 3.2 nM

## CN(C(=O)[C@@H]1CCCN1C(=O)[C@@H](N)Cc1ccc(O)cc1)[C@@H](Cc1ccccc1)C(=O)N1CCC[C@@H]1C(N)=O (H-YP[NMeF][dP]-NH2)
[1]
  Ki: > 10000 nM
Mu-type opioid receptor
  Ki: 8.1 nM

## CC[C@H](C)[C@H](NC(=O)[C@H](CCCN=C(N)N)NC(=O)[C@H](CCCN=C(N)N)NC(=O)[C@H](CC(C)C)NC(=O)[C@H](Cc1ccccc1)NC(=O)CNC(=O)CNC(=O)[C@@H](N)Cc1ccc(O)cc1)C(=O)O
[1]
  Ki: 1.4 nM

Source: BindingDB's records for PubMed 9686407 (Sri International, 1998)
